According to US10676518B1, “A4B2 nicotinic acetylcholine receptors with reduced or increased nicotine sensitivity and transgenic mouse model for the same” (University of Puerto Rico, priority 2015, dated 2020):
Marks after values point to notes of the source that are not given here.

Columns and labels:
Format in all cases: cell-based, Rattus norvegicus
[1] = tested on: α4β2 nAChRs expressed in Xenopus laevis oocytes; assay: Two-electrode voltage clamp, ACh-induced currents in oocytes; design: key to ACh EC50 (μM) / ACh Hill Coef. / ACh Peak Current (nA): (n/f) non-functional; (n/e) no-expression; details: ACh as agonist; for receptor function with ACh / ACh-induced macroscopic peak current compared with WT: in words; for ACh Peak Current (nA) / ACh EC50 (μM): mean ± SEM of 6-17 oocytes; for ACh EC50 (μM): −70 mV
Procedure: (§1) Single point mutations were prepared using the Quickchange™ Site-Directed Mutagenesis Kit (Stratagene, La Jolla, Calif.). The template used for the PCR reaction was the pGEMHE vector with Rattus norvegicus cDNA coding for the α4 neuronal nAChR subunit. DNA was purified using a QIAprep spin miniprep kit (Quiagen, Germantown, Md.) and then sequenced to confirm the incorporation of each mutation. A total of 11 residues in the cytoplasmic loop of the α4 subunit were chosen to be mutated: S364, T417, S438, S469, S471, S490, S504, S516, T536, Y576, and S589. Each residue was mutated to alanine (A) and aspartic acid (D).
(§2) Each subunit encoding mRNA was synthesized in vitro from linearized pGEMHE plasmid templates of Rattus norvegicus cDNA coding for α4 and β2 nAChR subunits using the mMessage mMachine RNA transcription kit (Ambion, Austin, Tex.). mRNA mixtures of α4 and β2 subunits were prepared at 2 μg:3 μg ratio, and 32.2 nL of this mixture was microinjected into each oocyte. The mRNA mixture was microinjected, using a displacement injector (Drummond Instruments, Broomhall, Pa.), into stage V and VI oocytes that had been extracted, incubated in collagenase Type 1A (Sigma, St. Louis, Mo.), and defolliculated by manual dissection. The injected oocytes were incubated at 19° C. for 3-4 days in ND-96 medium supplemented with albumin, gentamicin, tetracycline, and theophyline. Electrophysiological experiments were performed after the third or fourth day of mRNA injection.
(§3) Oocytes injected with the mRNA transcripts of α4 and β2 subunits were characterized using a two-electrode voltage clamp. ACh- and nicotine-induced currents were recorded at 20° C., 3-4 days after mRNA injection, with a GeneClamp 500B Amplifier (Axon Instruments, Foster City, Calif.). […] All the reagents used were purchased from Sigma-Aldrich, Co. (St. Louis, Mo.). For dose-response curves, each oocyte was held at a membrane potential of −70 mV. Membrane currents were digitized using the DigiData 1322A interface (Axon Instruments, Foster City, Calif.), filtered at 2 kHz during recording. The Clampex 10.0 software running on a Pentium 4-based computer was used for data acquisition. Data analysis was via Prism 3.0 (Graphpad Software, San Diego, Calif.). Dose-response data for the α4β2 combination were collected using seven ACh doses (0.1, 1, 3, 10, 30, 100, and a seventh concentration ranging from 300 to 1000 μM depending on the mutant) and seven nicotine concentrations (0.1, 1, 3, 10, 30, 100, 300 μM). The data were fitted using a one-component sigmoidal dose-response equation, Y=I/ImaxBottom+(I/ImaxTop−I/ImaxBottom)/(1+10^((Log EC50−X)×HillSlope)) where X is the logarithm of concentration and Y is the response.
Target sequence in this assay (P09483 31-249 limits assumed): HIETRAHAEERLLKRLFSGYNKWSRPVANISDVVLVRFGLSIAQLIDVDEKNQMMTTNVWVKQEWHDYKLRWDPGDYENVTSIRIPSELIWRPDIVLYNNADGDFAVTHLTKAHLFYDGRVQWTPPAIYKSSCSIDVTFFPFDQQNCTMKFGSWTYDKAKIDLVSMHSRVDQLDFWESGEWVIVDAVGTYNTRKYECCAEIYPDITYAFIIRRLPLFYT
Target sequence in this assay (P12390 25-237 limits assumed, further chain): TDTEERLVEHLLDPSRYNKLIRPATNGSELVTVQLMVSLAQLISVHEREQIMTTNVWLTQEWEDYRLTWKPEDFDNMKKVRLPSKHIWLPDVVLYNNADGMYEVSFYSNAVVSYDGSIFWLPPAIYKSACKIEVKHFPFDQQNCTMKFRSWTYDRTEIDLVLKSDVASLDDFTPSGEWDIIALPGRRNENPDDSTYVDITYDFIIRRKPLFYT

[2] = tested on: α4β2 nAChRs expressed in Xenopus laevis oocytes; assay: Two-electrode voltage clamp, nicotine-induced currents in oocytes; design: key to Nicotine EC50 (μM) / Nicotine Hill Coef. / Nicotine Peak Current (nA): (n/f) non-functional; (n/e) no-expression; key to Nicotine sensitivity mark of the mutation: Mutations highlighted in green (‡) exhibit hypersensitivity to nicotine; those in red (¶) exhibit agonist selectivity evidenced by their remarkable reductions in sensitivity to nicotine; details: for Nicotine Hill Coef. / receptor function with nicotine / Nicotine Peak Current (nA) / Nicotine EC50 (μM) / nicotine-induced macroscopic peak current compared with WT: nicotine as agonist; for receptor function with nicotine / nicotine-induced macroscopic peak current compared with WT: in words; for Nicotine Peak Current (nA) / Nicotine EC50 (μM): mean ± SEM of 6-17 oocytes; for Nicotine EC50 (μM): −70 mV; for Nicotine sensitivity mark of the mutation: footnote mark beside the mutation
Procedure: as §1, §2, §3
Target sequence in this assay (P09483 31-333 limits assumed): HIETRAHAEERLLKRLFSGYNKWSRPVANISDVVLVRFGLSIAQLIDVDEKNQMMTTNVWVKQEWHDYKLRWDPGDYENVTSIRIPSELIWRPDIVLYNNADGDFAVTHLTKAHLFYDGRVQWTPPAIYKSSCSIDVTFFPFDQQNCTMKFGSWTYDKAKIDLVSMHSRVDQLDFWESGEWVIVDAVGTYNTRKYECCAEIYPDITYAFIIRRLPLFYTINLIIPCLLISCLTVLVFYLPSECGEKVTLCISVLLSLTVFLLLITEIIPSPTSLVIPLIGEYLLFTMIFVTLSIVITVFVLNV
Target sequence in this assay (P12390 25-500, further chain): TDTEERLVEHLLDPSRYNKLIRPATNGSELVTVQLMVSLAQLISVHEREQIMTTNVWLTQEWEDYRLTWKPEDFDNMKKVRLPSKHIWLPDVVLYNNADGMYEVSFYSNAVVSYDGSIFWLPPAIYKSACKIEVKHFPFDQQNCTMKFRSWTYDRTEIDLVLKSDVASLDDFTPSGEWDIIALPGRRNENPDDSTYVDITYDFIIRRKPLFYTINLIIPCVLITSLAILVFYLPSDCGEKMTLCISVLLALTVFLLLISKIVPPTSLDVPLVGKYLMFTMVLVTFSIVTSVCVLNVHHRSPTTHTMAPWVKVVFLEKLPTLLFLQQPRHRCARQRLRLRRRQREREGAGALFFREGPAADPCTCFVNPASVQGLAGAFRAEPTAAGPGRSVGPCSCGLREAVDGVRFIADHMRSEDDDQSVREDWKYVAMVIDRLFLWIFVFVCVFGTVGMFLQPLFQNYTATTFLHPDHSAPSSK

[3] = tested on: α4β2 nAChRs expressed in Xenopus laevis oocytes; assay: Efficacy of agonist A-85380 versus ACh for subunit stoichiometry determination; details: A-85380 100 nM vs ACh 300 μM; α4β2 mRNA 2:3 ratio
Procedure: To determine whether the α4β2 mutations α4S469Aβ2, α4S471Dβ2, α4T536Aβ2 and α4Y576Aβ2 expressed in Xenopus laevis oocytes assemble in the α4(2):β2(3) or the α4(3):β2(2) stoichiometry, we estimated the efficacy of agonist A-85380 when compared to ACh 300 μM. […] The efficacy of A-85380 in WTα4(2):β2(3) and […] was determined by comparing the macroscopic current elicited by A-85380 100 nM and ACh 300 μM in oocytes microinjected α4β2 mRNA in 1:10 and 10:1 ratios, respectively. The efficacy of A-85380 in α4S469Aβ2, α4S471Dβ2, α4T536Aβ2 and α4Y576Aβ2 was determined by comparing the macroscopic current elicited by A-85380 100 nM and ACh 300 μM in oocytes microinjected α4β2 mRNA in 2:3 ratio. The changes in stoichiometry in these four mutants were assessed by comparing the efficacy of A-85380 in each mutant compared to WTα4(2):β2(3) and WTα4(3):β2(2).

α4S469Dβ2: rat α4β2 nAChR, α4 subunit point mutation S469D, CKII putative phosphorylation site
ACh Hill Coef. [1]: n/f
receptor function with ACh [1]: non-functional
ACh Peak Current (nA) [1]: n/f
ACh EC50 (μM) [1]: n/f
Nicotine Hill Coef. [2]: n/f
receptor function with nicotine [2]: non-functional
Nicotine Peak Current (nA) [2]: n/f
Nicotine EC50 (μM) [2]: n/f

α4S438Dβ2: rat α4β2 nAChR, α4 subunit point mutation S438D, CKII putative phosphorylation site
ACh Hill Coef. [1]: 0.68
ACh-induced macroscopic peak current compared with WT [1]: no change in the macroscopic peak current
ACh Peak Current (nA) [1]: 1938 ± 367 nA
Nicotine sensitivity mark of the mutation [2]: α4S438Dβ2‡
Nicotine Hill Coef. [2]: 1.29
nicotine-induced macroscopic peak current compared with WT [2]: significant increases in the macroscopic peak currents
Nicotine Peak Current (nA) [2]: 2156 ± 475 nA
Nicotine Peak Current (nA) ([2]; listed as α4S438D): 2156±475 nA

α4S471Dβ2: rat α4β2 nAChR, α4 subunit point mutation S471D, PKA putative phosphorylation site
ACh Hill Coef. [1]: 1.01
ACh-induced macroscopic peak current compared with WT [1]: significant decrease in macroscopic peak current
ACh Peak Current (nA) [1]: 1039 ± 139 nA
Nicotine Hill Coef. [2]: 2.00
nicotine-induced macroscopic peak current compared with WT [2]: significant decrease in the macroscopic peak current
receptor function with nicotine [2]: functional activation by nicotine
Nicotine Peak Current (nA) [2]: 142 ± 313 nA
efficacy of A-85380 compared with WT injected 2:3 or 1:10 ratio [3]: no significant difference

α4S469Aβ2: rat α4β2 nAChR, α4 subunit point mutation S469A, CKII putative phosphorylation site
ACh Hill Coef. [1]: 0.87
ACh-induced macroscopic peak current compared with WT [1]: no change in the macroscopic peak current
ACh Peak Current (nA) [1]: 2222 ± 413 nA
Nicotine sensitivity mark of the mutation [2]: α4S469Aβ2‡
Nicotine Hill Coef. [2]: 1.84
nicotine-induced macroscopic peak current compared with WT [2]: significant increases in the macroscopic peak currents
Nicotine Peak Current (nA) [2]: 1552 ± 313 nA
Nicotine Peak Current (nA) ([2]; listed as α4S469A): 1552±313 nA
efficacy of A-85380 compared with WT injected 2:3 or 1:10 ratio [3]: no significant difference

α4S438Aβ2: rat α4β2 nAChR, α4 subunit point mutation S438A, CKII putative phosphorylation site
ACh Hill Coef. [1]: 0.49
ACh-induced macroscopic peak current compared with WT [1]: significant decreases in the macroscopic peak currents
ACh Peak Current (nA) [1]: 97 ± 29 nA
Nicotine Hill Coef. [2]: n/f
receptor function with nicotine [2]: non-functional
Nicotine Peak Current (nA) [2]: n/f
Nicotine EC50 (μM) [2]: n/f

α4S471Aβ2: rat α4β2 nAChR, α4 subunit point mutation S471A, PKA putative phosphorylation site
ACh Hill Coef. [1]: n/f
receptor function with ACh [1]: non-functional
ACh Peak Current (nA) [1]: n/f
ACh EC50 (μM) [1]: n/f
Nicotine Hill Coef. [2]: n/f
Nicotine Peak Current (nA) [2]: n/f
Nicotine EC50 (μM) [2]: n/f

WT α4β2: wild-type rat α4β2 neuronal nicotinic acetylcholine receptor expressed in Xenopus laevis oocytes [reference compound]
ACh Hill Coef. [1]: 1.00
ACh Peak Current (nA) [1]: 2110 ± 243 nA
Nicotine Hill Coef. [2]: 1.80
Nicotine Peak Current (nA) [2]: 387 ± 66 nA
Nicotine Peak Current (nA) ([2]; listed as WT): 387±66 nA
